Reference: patent US6545032B1, “Synthesis of [3,5,7]-H-imidazo[1,5-a] imidazol-2(3H)-one compounds” (Torrey Pines Institute for Molecular Studies, priority 1999, dated 2003)

Columns and labels:
mu opiate receptor = biological target: T1, mu opiate receptor (Rattus norvegicus, UniProt P33535); experiment: Inhibition of [3H]DAMGO binding to the mu opiate receptor in rat brain homogenates; set-up: Mean: unit not given beside the values; settings: 0.08 mg of compound per milliliter, 7 nM 3H-labeled DAMGO, rat brain membranes; for % Bound: [3H]DAMGO bound; for Mean: mean bound radioactivity of [3H]DAMGO; for Minus NSB*: mean minus non-specific binding; for % Inhibition: percent inhibition of DAMGO binding
T1 construct: from tissue; host or cells: rat brain membranes/homogenate
Procedure, shortened: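 Members of an imidazo-imidazolone compound library were tested for blocking binding of [^3H]DAMGO, a mu opiate receptor-specific ligand, to rat brain membranes. Each 0.65 mL tube held 0.08 mg of compound mixture per milliliter, 0.5 mL membrane suspension (0.1 mg of protein) and 7 nM ^3H-labeled DAMGO (36 Ci/mmol) in 50 mM Tris-HCl buffer (pH 7.4).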

kappa opiate receptor = biological target: T2, kappa opiate receptor (Cavia porcellus, UniProt P41144); experiment: Inhibition of tritiated U69,593 binding to the kappa opiate receptor in guinea pig brain homogenates; set-up: Mean: unit not given beside the values; settings: 3 nm tritiated U69,593, guinea pig brain membranes; for % Bound: [3H]U69,593 bound; for % Inhibition: inhibition of [3H]U69,593 binding; for Mean: mean bound radioactivity of [3H]U69,593, 2.5 hours 25° C.; for Minus NSB: mean minus non-specific binding
T2 construct: guinea pig cortices and cerebella were homogenized in 40 mL of Buffer A; from tissue; host or cells: guinea pig cortices and cerebella, crude membrane suspension
Procedure, shortened: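 Guinea pig cortex and cerebellum membranes in 50 mM Tris-HCl pH 7.4 incubated with 3 nM [³H]U69,593 for 2.5 h at 25 °C, then filtered and bound radioactivity counted. Unlabelled U50,488 served as competitor for standard curve and nonspecific binding.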

T1 sequence (P33535 whole entry): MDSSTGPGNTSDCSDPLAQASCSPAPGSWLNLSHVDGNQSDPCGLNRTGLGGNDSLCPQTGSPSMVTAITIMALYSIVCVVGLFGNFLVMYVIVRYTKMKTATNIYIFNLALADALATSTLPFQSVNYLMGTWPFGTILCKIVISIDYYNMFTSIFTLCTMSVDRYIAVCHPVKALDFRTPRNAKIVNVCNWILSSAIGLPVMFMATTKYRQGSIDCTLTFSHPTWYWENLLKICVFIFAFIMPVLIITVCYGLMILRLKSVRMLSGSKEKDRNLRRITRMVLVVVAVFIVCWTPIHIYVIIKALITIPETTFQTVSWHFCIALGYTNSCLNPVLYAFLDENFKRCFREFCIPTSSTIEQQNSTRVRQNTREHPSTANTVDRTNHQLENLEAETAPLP
T2 sequence (P41144 whole entry): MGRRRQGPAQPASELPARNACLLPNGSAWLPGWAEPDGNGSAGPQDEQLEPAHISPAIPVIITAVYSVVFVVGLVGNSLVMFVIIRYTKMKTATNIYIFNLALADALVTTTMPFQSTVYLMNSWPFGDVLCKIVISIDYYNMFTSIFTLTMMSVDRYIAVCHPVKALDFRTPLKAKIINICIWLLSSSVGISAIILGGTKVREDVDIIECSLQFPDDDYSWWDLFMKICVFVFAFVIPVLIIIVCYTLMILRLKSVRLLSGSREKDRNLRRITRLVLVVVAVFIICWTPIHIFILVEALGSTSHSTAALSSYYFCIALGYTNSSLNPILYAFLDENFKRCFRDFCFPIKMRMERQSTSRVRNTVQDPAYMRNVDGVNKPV

| Structure (SMILES) | % Bound (mu opiate receptor) [%] | Mean (mu opiate receptor) | Minus NSB* (mu opiate receptor) | % Inhibition (mu opiate receptor) [%] | % Bound (kappa opiate receptor) [%] | % Inhibition (kappa opiate receptor) [%] | Mean (kappa opiate receptor) | Minus NSB (kappa opiate receptor) |
| --- | --- | --- | --- | --- | --- | --- | --- | --- |
| COc1ccc(Cc2nc(C(C)C)c3n2C(C(C)C)C(=O)N3)cc1 (racemic) [Pool 78] | 49 | 775.2 | 467.20 | 51 | 87.360 | 12.640 | 1812.05 | 905.05 |
| CC(C)c1nc(CC2CCCCC2)n2c1NC(=O)C2C(C)C (stereo not drawn) [Pool 138] | 60 | 877.8 | 569.80 | 40 | 70.685 | 29.315 | 1639.3 | 732.30 |
| CCC(C)c1nc(C(C)C)c2n1C(C(C)C)C(=O)N2 (mixture of isomers) [Pool 124] | 62 | 901.85 | 593.85 | 38 | 62.630 | 37.370 | 1555.85 | 648.85 |
| CC(C)c1nc(C2CCC2)n2c1NC(=O)C2C(C)C (stereo not drawn) [Pool 144] | 59 | 867.3 | 559.30 | 41 | 52.172 | 47.828 | 1447.5 | 540.50 |
| Cc1nc(Cc2ccc(O)cc2)c2n1C(C(C)C)C(=O)N2 (stereo not drawn) [Pool 48] | 44 | 728.5 | 420.50 | 56 | 84.653 | 15.347 | 1784 | 877.00 |
| CC(C)c1nc(C(C)(C)C)n2c1NC(=O)C2C(C)C (stereo not drawn) [Pool 135] | 65 | 931.85 | 623.85 | 35 | 69.170 | 30.830 | 1623.6 | 716.60 |
| CC(C)c1nc(Cc2ccc(Cl)c(Cl)c2)n2c1NC(=O)C2C(C)C (racemic) [Pool 81] | 71 | 988.3 | 680.30 | 29 | 89.223 | 10.777 | 1831.35 | 924.35 |
| CC(C)c1nc(Cc2ccccc2)n2c1NC(=O)C2C(C)C (racemic) [Pool 110] | 54 | 818.7 | 510.70 | 46 | 73.451 | 26.549 | 1667.95 | 760.95 |
| CCC(c1ccccc1)c1nc(C(C)C)c2n1C(C(C)C)C(=O)N2 (mixture of isomers) [Pool 68] | 66 | 935.45 | 627.45 | 34 | 106.786 | −6.786 | 2013.3 | 1106.30 |
| COc1cccc(Cc2nc(C(C)C)c3n2C(C(C)C)C(=O)N3)c1 (racemic) [Pool 76] | 57 | 854 | 546.00 | 43 | 91.902 | 8.098 | 1859.1 | 952.10 |
| CC(C)c1nc(Cc2cccc(Br)c2)n2c1NC(=O)C2C(C)C (racemic) [Pool 72] | 27 | 563 | 255.00 | 73 | 65.748 | 34.252 | 1588.15 | 681.15 |
| CC(C)c1nc(Cc2cccc(C(F)(F)F)c2)n2c1NC(=O)C2C(C)C (racemic) [Pool 73] | 69 | 967.25 | 659.25 | 31 | 78.205 | 21.795 | 1717.2 | 810.20 |
